Experimental data reported in patent publication US8399486B2, “Benzenesulfonyl compounds and the use thereof” (Purdue Pharma L.P., priority 2007, dated 2013).

Experiments:
[1] = molecular target: T1, N-type calcium channel (NTCC) (Homo sapiens, UniProt Q00975); test: FLIPR calcium mobilization assay for N-type calcium channel; format: cell-based; details: calcium mobilization in vitro assay, differentiated IMR32 cells, 90 mM KCl, 5 μM nitrendipine
T1 construct: endogenous in cells; host or cells: IMR32 cells (ATCC), differentiated with dibutyryl cAMP and bromodeoxyuridine
T1 sequence (Q00975 whole entry): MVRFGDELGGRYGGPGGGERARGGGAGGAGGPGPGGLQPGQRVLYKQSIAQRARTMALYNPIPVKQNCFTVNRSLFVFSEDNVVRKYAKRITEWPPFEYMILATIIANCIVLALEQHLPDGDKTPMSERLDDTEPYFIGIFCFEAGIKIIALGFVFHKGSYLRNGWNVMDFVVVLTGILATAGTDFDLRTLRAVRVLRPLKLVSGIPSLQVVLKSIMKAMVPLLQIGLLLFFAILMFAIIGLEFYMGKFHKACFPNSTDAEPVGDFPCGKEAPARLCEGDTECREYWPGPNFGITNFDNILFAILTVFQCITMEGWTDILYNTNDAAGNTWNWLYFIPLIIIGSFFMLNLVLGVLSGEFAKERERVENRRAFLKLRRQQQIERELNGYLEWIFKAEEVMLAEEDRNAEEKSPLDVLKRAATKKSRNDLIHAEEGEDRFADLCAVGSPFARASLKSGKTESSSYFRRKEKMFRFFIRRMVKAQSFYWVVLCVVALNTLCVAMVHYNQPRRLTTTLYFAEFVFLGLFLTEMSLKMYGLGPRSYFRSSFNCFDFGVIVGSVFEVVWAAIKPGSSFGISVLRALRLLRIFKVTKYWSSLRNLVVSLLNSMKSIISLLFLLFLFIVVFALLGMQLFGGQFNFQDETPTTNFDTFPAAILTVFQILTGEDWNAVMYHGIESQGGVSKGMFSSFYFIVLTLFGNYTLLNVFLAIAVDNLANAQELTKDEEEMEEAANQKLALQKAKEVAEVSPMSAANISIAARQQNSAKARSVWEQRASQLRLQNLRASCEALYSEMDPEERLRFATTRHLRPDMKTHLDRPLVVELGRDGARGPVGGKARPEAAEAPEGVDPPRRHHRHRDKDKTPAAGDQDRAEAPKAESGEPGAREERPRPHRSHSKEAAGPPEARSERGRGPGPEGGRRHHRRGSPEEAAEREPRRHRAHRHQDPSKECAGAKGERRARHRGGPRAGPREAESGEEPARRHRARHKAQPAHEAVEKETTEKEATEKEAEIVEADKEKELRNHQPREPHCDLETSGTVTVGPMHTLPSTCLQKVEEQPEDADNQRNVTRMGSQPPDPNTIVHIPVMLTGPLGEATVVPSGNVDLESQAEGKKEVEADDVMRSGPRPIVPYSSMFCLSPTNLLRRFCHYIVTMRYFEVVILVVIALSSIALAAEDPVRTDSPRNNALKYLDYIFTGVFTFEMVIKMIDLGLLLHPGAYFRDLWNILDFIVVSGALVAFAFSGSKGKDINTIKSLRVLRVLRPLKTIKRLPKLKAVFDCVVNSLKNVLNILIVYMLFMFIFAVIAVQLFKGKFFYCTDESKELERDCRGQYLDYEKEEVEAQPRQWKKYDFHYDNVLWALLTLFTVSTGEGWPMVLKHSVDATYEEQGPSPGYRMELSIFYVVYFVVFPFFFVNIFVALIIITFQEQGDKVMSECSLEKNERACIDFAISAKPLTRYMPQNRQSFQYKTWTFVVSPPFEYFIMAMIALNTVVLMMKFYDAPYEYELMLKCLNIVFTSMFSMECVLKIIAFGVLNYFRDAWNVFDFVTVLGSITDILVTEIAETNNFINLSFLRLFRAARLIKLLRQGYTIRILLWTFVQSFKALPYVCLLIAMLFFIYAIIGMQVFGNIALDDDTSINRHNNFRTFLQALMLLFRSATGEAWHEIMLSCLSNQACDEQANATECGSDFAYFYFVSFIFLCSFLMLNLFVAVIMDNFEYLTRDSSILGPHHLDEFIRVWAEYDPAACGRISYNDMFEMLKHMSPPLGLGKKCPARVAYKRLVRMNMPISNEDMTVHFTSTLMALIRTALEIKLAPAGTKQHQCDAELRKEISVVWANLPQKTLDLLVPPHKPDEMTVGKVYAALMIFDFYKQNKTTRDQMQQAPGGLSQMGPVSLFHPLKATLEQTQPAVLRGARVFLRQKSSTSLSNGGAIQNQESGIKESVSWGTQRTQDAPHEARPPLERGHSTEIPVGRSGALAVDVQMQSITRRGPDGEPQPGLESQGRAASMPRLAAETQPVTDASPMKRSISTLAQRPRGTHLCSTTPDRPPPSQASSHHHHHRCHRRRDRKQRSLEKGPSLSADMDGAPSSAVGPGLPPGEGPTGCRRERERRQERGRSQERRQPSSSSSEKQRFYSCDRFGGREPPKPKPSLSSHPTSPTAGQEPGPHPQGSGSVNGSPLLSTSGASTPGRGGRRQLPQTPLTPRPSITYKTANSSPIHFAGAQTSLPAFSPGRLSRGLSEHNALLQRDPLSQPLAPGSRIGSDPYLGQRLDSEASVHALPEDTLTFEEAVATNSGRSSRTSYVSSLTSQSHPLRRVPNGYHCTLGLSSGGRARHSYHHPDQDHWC
T1 sequence (P54289 25-956 partner limits assumed): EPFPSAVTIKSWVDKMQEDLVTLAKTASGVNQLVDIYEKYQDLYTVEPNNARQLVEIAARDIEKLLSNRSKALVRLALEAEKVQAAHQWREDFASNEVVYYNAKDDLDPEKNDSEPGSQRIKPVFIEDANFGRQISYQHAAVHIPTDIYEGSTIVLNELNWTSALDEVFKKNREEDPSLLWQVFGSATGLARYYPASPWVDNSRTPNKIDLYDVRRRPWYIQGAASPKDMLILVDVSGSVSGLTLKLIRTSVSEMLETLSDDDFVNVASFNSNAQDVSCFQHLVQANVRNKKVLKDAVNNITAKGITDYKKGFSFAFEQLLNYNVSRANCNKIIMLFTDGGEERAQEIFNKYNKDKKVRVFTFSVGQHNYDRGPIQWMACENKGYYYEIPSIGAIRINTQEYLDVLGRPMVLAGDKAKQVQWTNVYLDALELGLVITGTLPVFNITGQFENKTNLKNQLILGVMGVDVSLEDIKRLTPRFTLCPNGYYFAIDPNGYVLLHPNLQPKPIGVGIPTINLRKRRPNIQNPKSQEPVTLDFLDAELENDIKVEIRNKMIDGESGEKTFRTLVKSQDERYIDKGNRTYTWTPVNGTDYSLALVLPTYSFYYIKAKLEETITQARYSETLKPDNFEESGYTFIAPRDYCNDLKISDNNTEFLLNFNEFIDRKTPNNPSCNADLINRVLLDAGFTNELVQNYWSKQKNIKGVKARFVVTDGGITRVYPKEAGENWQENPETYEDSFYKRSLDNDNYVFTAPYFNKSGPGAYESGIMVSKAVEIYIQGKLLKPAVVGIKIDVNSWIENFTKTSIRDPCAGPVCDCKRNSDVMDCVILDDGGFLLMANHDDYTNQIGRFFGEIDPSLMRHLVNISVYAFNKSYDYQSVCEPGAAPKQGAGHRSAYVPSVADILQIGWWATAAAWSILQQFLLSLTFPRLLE
T1 sequence (P54289 957-1103 partner limits assumed): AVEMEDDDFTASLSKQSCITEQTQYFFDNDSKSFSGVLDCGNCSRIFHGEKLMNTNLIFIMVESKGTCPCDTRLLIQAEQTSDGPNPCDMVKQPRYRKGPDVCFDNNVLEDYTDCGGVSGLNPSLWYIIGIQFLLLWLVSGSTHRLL
T1 sequence (P54284 whole entry partner): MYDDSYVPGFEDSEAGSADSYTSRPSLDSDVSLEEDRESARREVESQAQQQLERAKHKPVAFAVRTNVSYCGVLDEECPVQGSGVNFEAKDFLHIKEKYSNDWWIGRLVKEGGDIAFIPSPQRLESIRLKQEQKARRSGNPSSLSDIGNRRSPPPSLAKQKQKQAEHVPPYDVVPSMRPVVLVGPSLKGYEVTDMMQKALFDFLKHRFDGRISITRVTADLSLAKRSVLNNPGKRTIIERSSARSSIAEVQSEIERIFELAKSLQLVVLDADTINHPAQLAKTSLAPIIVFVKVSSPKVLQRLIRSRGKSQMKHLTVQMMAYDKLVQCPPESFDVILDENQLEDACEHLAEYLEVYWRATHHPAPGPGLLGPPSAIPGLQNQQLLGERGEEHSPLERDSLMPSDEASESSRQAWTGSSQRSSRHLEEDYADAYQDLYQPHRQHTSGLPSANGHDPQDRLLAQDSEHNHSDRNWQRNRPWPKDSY
Procedure: Cell maintenance and differentiation. Unless noted otherwise, cell culture reagents were purchased from Mediatech of Herndon, Md. IMR32 cells (American Type Culture Collection, ATCC, Manassas, Va.) were routinely cultured in growth medium consisting of minimum essential medium containing 10% fetal bovine serum (FBS, Hyclone, Logan, Utah), 100 U/mL penicillin, 100 μg/mL streptomycin, 2 mM L-glutamine, 1 mM sodium pyruvate, and 1×MEM non-essential amino acids. 80-90% confluent flasks of cells were differentiated using the following differentiation medium: Growth medium plus 1 mM dibutyryl cyclic AMP (Sigma, St. Louis, Mo.), and 2.5 μM bromodeoxyuridine (Sigma). Cells were differentiated for 8 days by replacing differentiation medium every 2-3 days.
FLIPR Calcium Mobilization Assay for N-type Calcium Channel. One day prior to performing this assay, differentiated IMR32 cells were treated with 1× CellStripper, and seeded on poly-D-lysine-coated 96-well clear-bottom black plates (Becton Dickinson, Franklin Lakes, N.J.) at 200,000 cells/well. On the day of the assay, the cell plates were washed with IMR32 buffer (127 mM NaCl, 1 mM KCl, 2 mM MgCl2, 700 μM NaH2PO4, 5 mM CaCl2, 5 mM NaHCO3, 8 mM HEPES, 10 mM glucose, pH 7.4), then pre-stimulated with KCl and loaded as follows: 0.05 mL of IMR32 buffer, 0.05 mL of each compound tested diluted in IMR32 buffer containing 20 μM nitrendipine (Sigma), and 0.1 mL KCl dissolved in IMR32 buffer, plus Fluo-4 were added (3 μM final concentration, Molecular Probes, Eugene, Oreg.). Final test compound concentrations ranged from about 846 μM to about 17 μM, final nitrendipine concentration was 5 μM, and final KCl concentration was 90 mM. After 1 hour, the cells were washed twice with 0.05 mL of each compound tested in nitrendipine-containing IMR32 buffer (no KCl or Fluo-4), and then replaced with 0.1 mL of each compound tested in nitrendipine-containing IMR32 buffer. Plates were then transferred to a Fluorimetric Imaging Plate Reader (FLIPR^96, Molecular Devices, Inc., Sunnyvale, Calif.) for assay. The FLIPR measured basal Fluo-4 fluorescence for 315 seconds (i.e., 5 minutes and 15 seconds), then added 0.1 mL KCl agonist dissolved in IMR32 buffer and measured fluorescence for another 45 seconds. Final test compound concentrations on the cells after FLIPR read ranged from about 846 pM to about 17 μM, final nitrendipine concentration was 5 μM, and final KCl concentration was 90 mM. Data were collected over the entire time course and analyzed using Excel, Graph Pad Prism (version 3.02, Graph Pad, San Diego, Calif.), or an in-house non-linear regression analysis software.

[2] = molecular target: T2, L-type calcium channel (LTCC) (Rattus norvegicus, UniProt P22002); test: FLIPR calcium mobilization assay for L-type calcium channel; format: cell-based; details: calcium mobilization in vitro assay, HEK293 cells expressing recombinant rat LTCC subunits (α1c, α2δ, β1), 90 mM KCl
T2 construct: expressed in transfected cells; pcDNA6.2DEST α1c, pcDNA3.2DEST β1, pcDNA3.1-Zeo α2δ)
Procedure: Recombinant human embryonal kidney cells (HEK293, ATCC) stably transfected with either N-type calcium channel (NTCC) subunits (α1b, α2δ, and β3) or L-type calcium channel (LTCC) subunits (α1c, α2δ, and β1) were routinely cultured in growth medium consisting of Dulbecco's Modified Eagles Medium containing 10% FBS, 100 U/mL penicillin, 100 μg/mL streptomycin, 4 mM L-glutamine, 500 μg/mL geneticin (G418), 20 μg/mL Blasticidin S (InVivogen, San Diego, Calif.) and 500 μg/mL zeocin (InVivogen).
FLIPR Calcium Mobilization Assay for L-type Calcium Channel. One day prior to performing this assay, HEK293 cells stably expressing recombinant rat L-type calcium channel (LTCC) subunits (α1c, α2δ, and β1) were trypsinized, then seeded on poly-D-lysine-coated 96-well clear-bottom black plates (Becton Dickinson, Franklin Lakes, N.J.) at 75,000 cells/well. On the day of the assay, the plates were washed with LTCC wash buffer (127 mM NaCl, 2 mM MgCl2, 700 μM NaH2PO4, 5 mM CaCl2, 5 mM NaHCO3, 8 mM HEPES, 10 mM glucose, pH 7.4), then loaded with 0.1 mL of LTCC wash buffer containing Fluo-4 (3 μM final concentration, Molecular Probes, Eugene, Oreg.). After 1 hour, the cells were washed with 0.1 mL LTCC wash buffer and resuspended in 0.05 mL LTCC assay buffer (same composition as LTCC wash buffer). Plates were then transferred to a FLIPR^96 for assay. The FLIPR measured basal Fluo-4 fluorescence for 15 seconds, then added 0.05 mL of each compound tested diluted in LTCC assay buffer at final concentrations ranging from about 846 pM to about 17 μM. Fluo-4 fluorescence was then measured for 5 minutes. 0.1 mL KCl agonist dissolved in LTCC assay buffer was then added to the cells to produce a final concentration of 90 mM KCl, and fluorescence was measured for another 45 seconds. Data were collected over the entire time course and analyzed using Excel, Graph Pad Prism, or an in-house regression analysis software.
L-type Recombinant Cell Line Development. L-type calcium channel expressing HEK-293 cells were created in two stages. Stage 1 was created as follows. The rat α1c, and β1 cDNA expression constructs (2.5 μg each) were co-transfected into human embryonic kidney (HEK-293) cells by Lipofectamine Plus reagent (Invitrogen), as per manufacturer's instructions. 24 hours later, cells were split in limiting dilution into multiple 96-well plates in selection media containing 20 μg/mL blasticidin and 500 μg/mL geneticin, and incubated for 3 weeks at 37° C., 5% CO2, 95% humidity. […] The FLIPR measured basal Fluo-4 fluorescence for 315 seconds, then added 0.1 mL KCl agonist dissolved in LTCC buffer and measured fluorescence for another 45 seconds. […] Data were collected over the entire time course and analyzed using Excel, Graph Pad Prism, or Activity Base software. […]

IC50 [1] [nM] | IC50 [2] [nM] | SMILES
790 | 9330 | O=C(CN(C1CC1)C1CCN(S(=O)(=O)c2cccc(C(F)(F)F)c2)CC1)Nc1ccc(F)cc1 [Compound 14, 2-{Cyclopropyl-[1-(3-trifluoromethylbenzenesulfonyl)-piperidin-4-yl]amino}-N-(4-fluorophenyl)acetamide]
460 | > 20000 | O=C(CNC1CCN(S(=O)(=O)c2cccc(C(F)(F)F)c2)CC1)Nc1ccc(F)cc1 [Compound 6, N-(4-Fluorophenyl)-2-[1-(3-trifluoromethyl-benzenesulfonyl)-piperidin-4-ylamino]acetamide]
740 | > 20000 | O=C(CNC1CCN(S(=O)(=O)c2cccc(C(F)(F)F)c2)CC1)Nc1cc(C(F)(F)F)cc(C(F)(F)F)c1 [Compound 18, N-(3,5-Bis-(trifluoromethyl)phenyl)-2-[1-(3-trifluoromethyl-benzenesulfonyl)piperidin-4-ylamino]acetamide]
1290 | – | O=C(CC(=O)NC1CCN(S(=O)(=O)c2cccc(C(F)(F)F)c2)CC1)Nc1ccc(F)cc1F [Compound 23, N-(2,4-Difluorophenyl)-N′-[1-(3-trifluoromethylbenzenesulfonyl)-piperidin-4-yl]malonamide]
470 | 5980 | O=C(CNC1CCN(S(=O)(=O)c2cccc(C(F)(F)F)c2)C1)Nc1ccc(F)cc1 (stereo not drawn) [Compound 10, N-(4-Fluorophenyl)-2-[1-(3-trifluoromethylbenzenesulfonyl)-pyrrolidin-3-ylamino]-acetamide]
